Assay results published in US20130217664A1, “NOVEL COMPOUNDS USEFUL FOR THE TREATMENT OF DEGENERATIVE AND INFLAMMATORY DISEASES” (priority 2012, published 2013).

Experiments:
Assay type in all cases: biochemical
[1] = target: T1, human JAK1 (Homo sapiens, UniProt P23458); test: JAK1 inhibition assay (polyGT substrate / Ulight-JAK1 peptide); details: recombinant human JAK1 catalytic domain; polyGT or Ulight-JAK1 peptide assay
T1 construct: catalytic domain, amino acids 866-1154; catalog number PV4774; purchased Invitrogen PV4774
Method in brief: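 Two formats. PolyGT radiometric: 45 min at 30 °C, stopped with phosphoric acid, counted as cpm. Ulight-JAK1 peptide: 60 min at room temperature, stopped with Eu-anti-phosphotyrosine/EDTA, read as RFU. Percent inhibition normalised to vehicle and 10 μM staurosporine.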

[2] = target: T2, human JAK2 (Homo sapiens, UniProt O60674); test: JAK2 inhibition assay (polyGT substrate / Ulight-JAK1 peptide); details: recombinant human JAK2 catalytic domain; polyGT or Ulight-JAK1 peptide assay
T2 construct: catalytic domain (amino acids 808-1132; catalog number PV4210); GST; purchased Invitrogen PV4210
Experimental: 1.2 JAK2 Inhibition Assay
1.2.1 JAK2 Assay polyGT Substrate
0.025 mU of JAK2 is incubated with 2.5 μg polyGT substrate (Sigma catalog number P0275) in kinase reaction buffer (5 mM MOPS pH 7.5, 9 mM MgAc, 0.3 mM EDTA, 0.06% Brij and 0.6 mM DTT, 1 μM non-radioactive ATP, 0.25 μCi ^33P-gamma-ATP (GE Healthcare, catalog number AH9968) final concentrations) with or without 5 μL containing test compound or vehicle (DMSO, 1% final concentration), in a total volume of 25 μL, in a polypropylene 96-well plate (Greiner, V-bottom). After 90 min at 30° C., reactions are stopped by adding of 25 μL/well of 150 mM phosphoric acid. […] Plates are washed 6 times with 300 μL per well of a 75 mM phosphoric acid solution and the bottom of the plates is sealed. 40 μL/well of Microscint-20 is added, the top of the plates is sealed and readout is performed using the Topcount (Perkin Elmer). Kinase activity is calculated by subtracting counts per min (cpm) obtained in the presence of a positive control inhibitor (10 μM staurosporine) from cpm obtained in the presence of vehicle. The ability of a test compound to inhibit this activity is determined as:
(§1) Percentage inhibition=((cpm determined for sample with test compound present−cpm determined for sample with positive control inhibitor)divided by(cpm determined in the presence of vehicle−cpm determined for sample with positive control inhibitor))*100.
Dose dilution series are prepared for the compounds enabling the testing of dose-response effects in the JAK2 assay and the calculation of the IC50 for each compound.
1.2.2 JAK2 Ulight-JAK1 Peptide Assay
After 60 min at room temperature, reactions were stopped by adding 20 μL/well of detection mixture (1× detection buffer (Perkin Elmer, catalog number CR97-100C), 0.5 nM Europium-anti-phosphotyrosine (PT66) (Perkin Elmer, catalog number AD0068), 10 mM EDTA). […] Kinase activity was calculated by subtracting relative fluorescence units (RFU) obtained in the presence of a positive control inhibitor (10 μM staurosporine) from RFU obtained in the presence of vehicle. The ability of a test compound to inhibit this activity was determined as:
Percentage inhibition=((RFU determined for sample with test compound present−RFU determined for sample with positive control inhibitor)divided by(RFU determined in the presence of vehicle−RFU determined for sample with positive control inhibitor))*100.
Dose dilution series are prepared for compound enabling the testing of dose-response effects in the JAK2 assay and the calculation of the IC50 for the compound. Each compound is routinely tested at concentration of 20 μM followed by a 1/5 serial dilution, 10 points in a final concentration of 1% DMSO. […] The data are expressed as the average IC50 from the assays±standard error of the mean.

[3] = target: T3, human JAK3 (Homo sapiens, UniProt P52333); test: JAK3 inhibition assay; details: recombinant human JAK3 catalytic domain; polyGT substrate
T3 construct: catalytic domain (amino acids 781-1124; catalog number PV3855); purchased Invitrogen PV3855
Experimental: 1.3 JAK3 Inhibition Assay
0.5 ng JAK3 protein was incubated with 2.5 μg polyGT substrate (Sigma catalog number P0275) in kinase reaction buffer (25 mM Tris pH 7.5, 0.5 mM EGTA, 10 mM MgCl2, 2.5 mM DTT, 0.5 mM Na3VO4, 5 mM b-glycerolphosphate, 0.01% Triton X-100, 1 μM non-radioactive ATP, 0.25 μCi 33P-gamma-ATP (GE Healthcare, catalog number AH9968) final concentrations) with or without 5 μL containing test compound or vehicle (DMSO, 1% final concentration), in a total volume of 25 μL, in a polypropylene 96-well plate (Greiner, V-bottom). After 45 min at 30° C., reactions were stopped by adding 25 μL/well of 150 mM phosphoric acid. […] Plates were washed 6 times with 300 μL per well of a 75 mM phosphoric acid solution and the bottom of the plates was sealed. 40 μL/well of Microscint-20 was added, the top of the plates was sealed and readout was performed using the Topcount (Perkin Elmer). Kinase activity was calculated by subtracting counts per min (cpm) obtained in the presence of a positive control inhibitor (10 μM staurosporine) from cpm obtained in the presence of vehicle. The ability of a test compound to inhibit this activity was determined as:
as §1
Dose dilution series were prepared for the compounds enabling the testing of dose-response effects in the JAK3 assay and the calculation of the IC50 for each compound. Each compound was routinely tested at concentration of 20 μM followed by a 1/5 serial dilution, 10 points in a final concentration of 1% DMSO.

[4] = target: T4, human TYK2 (Homo sapiens, UniProt P29597); test: TYK2 inhibition assay; details: recombinant human TYK2 catalytic domain, polyGT substrate
T4 construct: catalytic domain (amino acids 871-1187; catalog number 08-147); purchased Carna Biosciences 08-147
T4 sequence (P29597 871-1187): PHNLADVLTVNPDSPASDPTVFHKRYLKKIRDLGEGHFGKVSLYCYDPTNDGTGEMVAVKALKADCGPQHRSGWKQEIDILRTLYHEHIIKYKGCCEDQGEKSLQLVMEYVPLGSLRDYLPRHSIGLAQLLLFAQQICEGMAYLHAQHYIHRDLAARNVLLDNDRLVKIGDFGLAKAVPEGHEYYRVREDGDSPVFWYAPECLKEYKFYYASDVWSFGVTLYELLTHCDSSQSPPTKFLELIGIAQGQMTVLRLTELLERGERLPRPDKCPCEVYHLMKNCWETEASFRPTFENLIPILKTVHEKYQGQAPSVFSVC
Experimental: 1.4 TYK2 Inhibition Assay
After 90 min at 30° C., reactions were stopped by adding 25 μL/well of 150 mM phosphoric acid. […] Plates were washed 6 times with 300 μL per well of a 75 mM phosphoric acid solution and the bottom of the plates was sealed. 40 μL/well of Microscint-20 was added, the top of the plates was sealed and readout was performed using the Topcount (Perkin Elmer). Kinase activity was calculated by subtracting counts per min (cpm) obtained in the presence of a positive control inhibitor (10 μM staurosporine) from cpm obtained in the presence of vehicle. The ability of a test compound to inhibit this activity was determined as:
as §1
Dose dilution series were prepared for the compounds enabling the testing of dose-response effects in the TYK2 assay and the calculation of the IC50 for each compound.

T1 sequence (P23458 866-1154): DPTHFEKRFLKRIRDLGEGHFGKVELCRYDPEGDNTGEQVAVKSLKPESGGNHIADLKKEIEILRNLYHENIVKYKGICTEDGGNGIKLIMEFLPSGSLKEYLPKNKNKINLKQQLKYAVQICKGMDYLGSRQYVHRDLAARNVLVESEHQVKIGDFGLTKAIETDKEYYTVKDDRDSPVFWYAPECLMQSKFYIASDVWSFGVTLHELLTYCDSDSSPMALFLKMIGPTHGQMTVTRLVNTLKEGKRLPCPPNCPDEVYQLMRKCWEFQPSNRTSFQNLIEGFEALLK
T3 sequence (P52333 781-1124): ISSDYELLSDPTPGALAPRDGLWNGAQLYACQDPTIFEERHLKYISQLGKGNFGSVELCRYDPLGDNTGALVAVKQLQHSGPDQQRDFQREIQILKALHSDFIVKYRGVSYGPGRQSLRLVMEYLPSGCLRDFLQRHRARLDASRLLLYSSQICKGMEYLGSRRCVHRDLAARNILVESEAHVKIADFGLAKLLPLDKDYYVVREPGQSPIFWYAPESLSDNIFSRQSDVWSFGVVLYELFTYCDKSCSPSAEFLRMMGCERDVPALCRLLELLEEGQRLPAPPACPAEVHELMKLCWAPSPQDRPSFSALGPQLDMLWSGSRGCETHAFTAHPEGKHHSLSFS
T2 sequence (O60674 808-1132): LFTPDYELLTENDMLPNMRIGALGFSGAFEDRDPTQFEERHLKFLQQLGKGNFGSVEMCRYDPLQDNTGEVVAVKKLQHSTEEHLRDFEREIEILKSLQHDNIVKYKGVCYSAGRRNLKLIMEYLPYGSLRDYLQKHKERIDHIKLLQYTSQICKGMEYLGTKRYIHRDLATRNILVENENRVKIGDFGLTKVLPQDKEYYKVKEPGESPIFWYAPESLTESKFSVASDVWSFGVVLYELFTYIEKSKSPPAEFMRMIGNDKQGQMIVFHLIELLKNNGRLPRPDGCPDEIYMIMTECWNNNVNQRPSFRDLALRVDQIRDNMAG

Question: With `CN(c1cc2c(cn1)ncn2C)c1cc(C2CC2)nn1C` [Compound 306, (5-Cyclopropyl-2-methyl-2H-pyrazol-3-yl)-methyl-(1-methyl-1H-imidazo[4,5-c]pyridin-6-yl)-amine] as the molecule, how does the IC50 [1] read?
Answer: > 1000 nM

Question: And the IC50 [2]?
Answer: > 1 µM

Question: What about the IC50 [3] of the same molecule?
Answer: > 1 µM

Question: And the IC50 [4]?
Answer: > 1 µM

Question: `CN(c1cc2c(cn1)ncn2C)c1ccc(C2CN(C(=O)N3CCOCC3)C2)cc1OC(F)F` [Compound 368] was tested. Which IC50 [1] did it give?
Answer: 501 to 1000 nM

Question: And the IC50 [2]?
Answer: > 1 µM

Question: And the IC50 [3]?
Answer: > 1 µM

Question: And the IC50 [4]?
Answer: > 1 µM

Question: How did the IC50 [1] turn out when `CCc1ncncc1N(C)c1cc2c(cn1)ncn2C` [Compound 456, (4-Ethyl-pyrimidin-5-yl)-methyl-(1-methyl-1H-imidazo[4,5-c]pyridin-6-yl)-amine] was run?
Answer: > 1000 nM

Question: And the IC50 [2]?
Answer: > 1 µM

Question: What about the IC50 [3] of the same molecule?
Answer: > 1 µM

Question: What about the IC50 [4] of the same molecule?
Answer: > 1 µM

Question: What does the source list for `CN(c1ccc(OC(F)(F)F)cc1)c1cc2c(cn1)ncn2C` [Compound 1, N,1-dimethyl-N-(4-(trifluoromethoxy)phenyl)-1H-imidazo[4,5-c]pyridin-6-amine]?
Answer: IC50 [1]: 101 to 500 nM; IC50 [2]: > 1 µM; IC50 [3]: > 1 µM; IC50 [4]: > 1 µM

Question: Which results are given for `CCc1ccccc1N(C)c1cc2c(cn1)ncn2C(F)F` [Compound 431, (1-Difluoromethyl-1H-imidazo[4,5-c]pyridin-6-yl)-(2-ethyl-phenyl)-methyl-amine]?
Answer: IC50 [1]: 101 to 500 nM; IC50 [2]: > 1 µM; IC50 [3]: 0.101 to 0.5 µM; IC50 [4]: > 1 µM

Question: How did the IC50 [1] turn out when `CCc1cc(C2CN(C(=O)OC)C2)ncc1N(C)c1cc2c(cn1)ncn2C` [Compound 339, 3-{4-Ethyl-5-[methyl-(1-methyl-1H-imidazo[4,5-c]pyridin-6-yl)-amino]-pyridin-2-yl}-azetidine-1-carboxylic acid methyl ester] was run?
Answer: 0.01 to 100 nM

Question: And the IC50 [2]?
Answer: 0.101 to 0.5 µM

Question: And the IC50 [3]?
Answer: > 1 µM

Question: What about the IC50 [4] of the same molecule?
Answer: > 1 µM

Question: How did the IC50 [1] turn out when `COCN(Cc1ccc(N(C)c2cc3c(cn2)ncn3C)c(F)c1)S(C)(=O)=O` [Compound 359, N-{3-Fluoro-4-[methyl-(1-methyl-1H-imidazo[4,5-c]pyridin-6-yl)-amino]-benzyl}-N-methoxymethyl-methanesulfonamide] was run?
Answer: 101 to 500 nM

Question: And the IC50 [2]?
Answer: 0.101 to 0.5 µM

Question: What about the IC50 [3] of the same molecule?
Answer: > 1 µM

Question: What about the IC50 [4] of the same molecule?
Answer: > 1 µM

Question: For `CCc1cc(C2CN(C(=O)CC#N)C2)ncc1N(C)c1cc2c(cn1)ncn2C` [Compound 335, 3-(3-{4-Ethyl-5-[methyl-(1-methyl-1H-imidazo[4,5-c]pyridin-6-yl)-amino]-pyridin-2-yl}-azetidin-1-yl)-3-oxo-propionitrile], which IC50 [1] is on record?
Answer: 0.01 to 100 nM

Question: What about the IC50 [2] of the same molecule?
Answer: 0.501 to 1 µM

Question: What about the IC50 [3] of the same molecule?
Answer: > 1 µM

Question: What about the IC50 [4] of the same molecule?
Answer: > 1 µM

Question: With `CN(c1cc2c(cn1)ncn2C)c1ccc(C2CN(CC(N)=O)C2)cc1OC(F)F` [Compound 374, 2-(3-{3-Difluoromethoxy-4-[methyl-(1-methyl-1H-imidazo[4,5-c]pyridin-6-yl)-amino]-phenyl}-azetidin-1-yl)-acetamide] as the molecule, how does the IC50 [1] read?
Answer: 101 to 500 nM

Question: And the IC50 [2]?
Answer: 0.101 to 0.5 µM

Question: What about the IC50 [3] of the same molecule?
Answer: > 1 µM

Question: What about the IC50 [4] of the same molecule?
Answer: > 1 µM

Question: Which results are given for `CN(c1cc2c(cn1)ncn2C)c1c(F)cc(C#N)cc1F` [Compound 403, 3,5-Difluoro-4-[methyl-(1-methyl-1H-imidazo[4,5-c]pyridin-6-yl)-amino]-benzonitrile]?
Answer: IC50 [1]: 501 to 1000 nM; IC50 [2]: > 1 µM; IC50 [3]: > 1 µM; IC50 [4]: > 1 µM

Question: Which IC50 [1] does the source give for `CCc1cn(C2(CC#N)CNC2)nc1N(C)c1cc2c(cn1)ncn2C` [Compound 309, (3-{4-Ethyl-3-[methyl-(1-methyl-1H-imidazo[4,5-c]pyridin-6-yl)-amino]-pyrazol-1-yl}-azetidin-3-yl)-acetonitrile] here?
Answer: > 1000 nM

Question: What about the IC50 [2] of the same molecule?
Answer: > 1 µM

Question: What about the IC50 [3] of the same molecule?
Answer: > 1 µM

Question: And the IC50 [4]?
Answer: > 1 µM

Question: For `COCCNC(=O)c1ccc(N(C)c2cc3c(cn2)ncn3C)c(C)c1` [Compound 50, N-(2-methoxyethyl)-3-methyl-4-(methyl(1-methyl-1H-imidazo[4,5-c]pyridin-6-yl)amino)benzamide], which IC50 [1] is on record?
Answer: > 1000 nM

Question: What about the IC50 [2] of the same molecule?
Answer: > 1 µM

Question: What does the source list for `CCc1cc(C(=O)N2CCS(=O)(=O)CC2)ccc1N(C)c1cc2c(cn1)ncn2C` [Compound 104, (1,1-Dioxothiomorpholin-4-yl)-{3-ethyl-4-[methyl-(1-methyl-1H-imidazo[4,5-c]pyridin-6-yl)-amino]-phenyl}-methanone]?
Answer: IC50 [1]: > 1000 nM; IC50 [2]: > 1 µM

Question: Which results are given for `CN(c1cc2c(cn1)ncn2C)c1ccccc1OC(F)(F)F` [Compound 49, N,1-dimethyl-N-(2-(trifluoromethoxy)phenyl)-1H-imidazo[4,5-c]pyridin-6-amine]?
Answer: IC50 [1]: 501 to 1000 nM; IC50 [2]: > 1 µM

Question: Which results are given for `CCc1ccccc1N(c1cc2c(cn1)ncn2C)C1CC1` [Compound 37, N-Cyclopropyl-N-(2-ethylphenyl)-1-methyl-1H-imidazo[4,5-c]pyridin-6-amine]?
Answer: IC50 [1]: 101 to 500 nM; IC50 [2]: > 1 µM

Question: `CN(c1cc2c(cn1)ncn2C)c1ccccc1C(F)(F)F` [Compound 36, N,1-dimethyl-N-(2-(trifluoromethyl)phenyl)-1H-imidazo[4,5-c]pyridin-6-amine] was tested. Which IC50 [1] did it give?
Answer: > 1000 nM

Question: What about the IC50 [2] of the same molecule?
Answer: > 1 µM

Question: How did the IC50 [2] turn out when `CCc1ccccc1N(CCC#N)c1cc2c(cn1)ncn2C` [Compound 464, 3-((2-ethylphenyl)(1-methyl-1H-imidazo[4,5-c]pyridin-6-yl)amino)propanenitrile] was run?
Answer: > 1 µM

Question: What about the IC50 [3] of the same molecule?
Answer: > 1 µM

Question: What about the IC50 [4] of the same molecule?
Answer: > 1 µM

Question: Which IC50 [1] does the source give for `Cc1ccccc1N(C)c1cc2c(cn1)ncn2C` [Compound 15, N,1-dimethyl-N-o-tolyl 1H-imidazo[4,5-c]pyridin-6-amine] here?
Answer: 101 to 500 nM

Question: And the IC50 [2]?
Answer: > 1 µM
